For orientation: MIC means the lowest concentration that inhibits growth of the organism.

Values after ≈ are worked out from the molar mass of the structure shown. Where two headings read alike, the source gives them in different places.

In patent US11192913B2, “C-glycoside amine derivatives and methods of making” (The United States of America, as Represented by the …, priority 2020, dated 2021) one finds MIC, minimum bactericide concentration and minimum inhibitory concentration data, which are given here for four compounds.

The subject of assay [1] is Streptococcus mutans. The settings on record: Watanabe et al. 2000; cited from earlier work.
In assay [2] the test system is all gram positive organisms tested. The note with it: against all gram positive organisms tested. As to the method:
(§1) When surfactants are used in detergent formulations, antibiotic activity is an important trait. The antibiotic activity of the surfactants prepared from the saccharides glucose, maltose, and lactose, and 2-undecanone were measured against several microorganisms of interest in the food, human health, and agricultural areas. […] The CMC values for the β-C-glycoside 2-aminoundecanes were 0.1-5.5 mM.
(§2) Summary: β-C-glycoside ketone derivatives of saccharides glucose, lactose, and maltose were converted to amines via a reductive amination using 2 wt % Rh/HMS (Rh/C or Rh/Al2O3 can be used) in ammoniacal methanol under about 500 psi H2 (pressure can be about 350 psi). The amines were isolated and then these molecules were used as the amine in the reductive amination of 2-undecanone prepared from the seed oil of Cuphea. The resulting β-C-glycoside 2-aminoundecanes were characterized by MALDI-TOF mass spectrometry, 2D nmr, and CHN analyses. The detergency of the products was measured by fluorescence detection to measure the critical micelle concentration.

Assay [3] concerns Escherichia coli. Kind of assay: Antimicrobial activity. Type of assay: cell-based. The note with it: gram negative Escherichia. As to the method: as §1, §2
The test system of assay [4] is Envinia amylovora. The assay can be described thus: Antimicrobial activity. It is filed as cell-based. The note with it: gram negative Erwinia. As to the method:
as §1, §2

The subject of assay [5] is Bacillus subtilis. The note with it: Zhao et al. 2015; cited from earlier work.
The subject of assay [6] is Escherichia coli. The settings on record: Zhao et al. 2015; cited from earlier work.
Assay [7] deals with B. cereus. The settings on record: Staron et al. 2018; cited from earlier work.

Take Galactose laurate: the minimal inhibitory concentration (MIC) in assay [1] is 140 µM.

For the compound `CCCCCCCCCC(C)NC(C)C[C@@H]1O[C@H](CO)[C@@H](O)[C@H](O)[C@H]1O` (some centres unmarked) [glucose derivative, Glucose C-glycoside 2-aminoundecane], in assay [2], the minimum bactericide concentration is 620 µM (≈ 233 µg/mL) and the minimum inhibitory concentration was 310 µM (≈ 116 µg/mL). Further, the MIC in assay [3] stood at 620 µM (≈ 233 µg/mL). The compound also showed an MIC in assay [4] of 620 µM (≈ 233 µg/mL).

For the compound sucrose caprate, the figures for the MIC in assay [5] and in assay [6] were 2500 µM and 10000 µM, respectively.

Turning to dodecanoyl lactose, the MIC in assay [7] was 5900 µM.
